Assay results taken from patent US20100292306A1, “Compositions And Methods For The Treatment Of Muscular Dystrophy” (priority 2005, published 2010).
Residues, ends and D or L forms follow the SMILES beside them. *: point of attachment. Cbz = O=C(OCc1ccccc1)*

Columns and labels:
mdx mice = experiment: Noninvasive whole body tension (WBT) measurement of forward pulling tensions; format: in vivo
From the text: FIG. 18 presents individual “forward pulling tensions” (FPTs; upward deflections) recorded from a PDTC-treated mouse (Series 2) using the whole body tension (WBT) technique (Carlson and Makiejus, 1990). The rank order of FPTs from highest to lowest is indicated by the numbers in the figure. […] In the Series 2 experiments, WBT measurements were obtained from each of the saline-injected and PDTC-injected mice on days 0, 9, 21 and 40 of the experiment.
As a first step in examining the potential effects of PDTC treatment on WBT tension development, the slope of the decline in FPTs was evaluated for each recording session for each mouse examined in the Series 2 experiments (FIG. 19A, 19B). This measure essentially provides a “fatigue index” (FI) since the slope of the decline in FPTs is a direct measure of the average magnitude of the decline in FPT per individual pull for rank-ordered pulls number 2 through 10. If 10 individual pulls obtained during the recording session have identical magnitudes representing the highest FPT, then the FI equals 0. In contrast, a 50% reduction in FPT per pull would produce an FI equal to −0.5.
To examine the potential effect of PDTC treatment on FI in age matched adult mdx mice, a pre-treatment FU was obtained during a typical recording session from each of 10 mdx mice used in the Series 2 investigations (age 9.5 to 16 months at beginning of study). Five of the mice were subsequently treated with daily injections of vehicle (HEPES buffered Ringer's solution) and 5 of the mice were treated with daily injections of 50 mg/kg PDTC. Recordings for each of the mice were subsequently obtained on days 9, 21, and 40 of the treatment period (e.g., FIG. 19). To determine the potential effects of treatment on FI, the FIs obtained on days 9, 21, and 40 (e.g., FIG. 19) were each normalized to the pre-treatment FI for each of the 10 mice used in the study. […] A decrease in the FI indicating a reduction in the average loss of tension per pull during the course of the study would produce normalized FIs less than one, no change in FI would be associated with normalized FIs equal to 1.0, and increases in FI would produce normalized FIs greater than 1.0.
Mdx (C57 Bl10-mdx) and nondystrophic (C57Bl10-SnJ) mice were obtained from Jackson laboratories and bred under conditions approved by the Institutional Animal Care and Use Committee (IACUC). All studies were performed in accordance with the guidelines provided by the IACUC. Male and female PDTC treated mdx mice received daily intraperitoneal (ip) injections of 50 mg/kg pyrollidine dithiocarbamate (PDTC; Sigma P8765) dissolved in sterile-filtered (0.2 μm) HEPES-buffered Ringers solution (147.5 mM NaCl, 5 mM KCl, 2 mM CaCl2, 11 mM glucose, 5 mM Hepes, pH 7.35). Age- and gender-matched groups of vehicle-treated mice received corresponding injections of HEPES Ringers. See Carlson et al., 2005. The PDTC experiments were conducted on two series of mature adult mdx mice (9.5-16 month; 19-20 months) and on a series of young adult (1 month) mice. In each case, the mice in the experimental and vehicle-treated groups were matched according to age and gender with an equal number of males and females in each group. WBT tension measurements were obtained prior to initiating treatment and on multiple occasions following at least 3 weeks (20 days) of treatment.
A group of 30 day-old mdx mice were exposed to daily ip injections (30 day) of 40 mg/kg UDCA (Sigma #5127; 2 mg/ml; N=12 experimental) in an isotonic saline vehicle (1.02% NaCl, pH 8.4,) or a synthetic taurine derivative of UDCA (tauroursodeoxycholic acid, TUDCA, SpA Laboratorio Farmacologico, Cenate Sotto, Italy; 6 mg/ml; N=4 experimental) administered in a saline vehicle (NaCl 6 g/l, KCl 0.3 g/l, CaCl2 0.2 g/l, Na acetate 4 g/l, 300 mosM/l, pH 6.1).
WBT measurements were obtained as indicated in Examples 5 through 7 by placing an approximately 0.5 inch square piece of adhesive tape around the tail about 1 inch from the tip. […]

IκB-α and phospho-IκB-α = experiment: Western blot of phospho-IκB-α and IκB-α in costal diaphragm after proteasomal inhibition with MG132; format: in vivo, nondystrophic and mdx mice
Procedure: The influence of the proteasomal inhibitor MG132 on the cytosolic expression of IκB-α and Pi-IκB-α was determined by administering 5 month nondystrophic and mdx mice MG132 (1 mg/kg, intraperitoneal) or vehicle (DMSO) in vivo 2 h prior to euthanization and isolation of the diaphragm. The individual intact costal diaphragms from the MG132 group were then exposed to MG132 ([…] in HEPES Ringer) in vitro for another 2 h while the costal diaphragms from the vehicle group were exposed to HEPES Ringer and vehicle. This procedure of combining in vivo and in vitro exposure to MG was used to maximize inhibition of proteasomal degradation and facilitate the cytosolic accumulation of Pi-IκB-α and IκB-α in the MG132 treated preparations. […]
Cytosolic and nuclear extracts were obtained by homogenizing individual muscles at a concentration of 1 mg wet weight per 18 μl of low salt lysis buffer (LSLB: 10 mM HEPES, 10 mM KCl, 1.5 mM MgCl2, 0.1 mM EDTA, 0.1 mM EGTA, 1 mM dithiothreitol, 1.0 mg/ml benzamidine, 0.5 mM phenylmethylsulfonyl fluoride, 4.0 μl/ml protease inhibitor cocktail Sigma #8340, 10 μl/ml phosphatase inhibitor Sigma #P2850, pH 7.9. See Kumar et al. (2003); Carlson et al. (2005)). […] Pellets were subsequently washed twice (50 μl of LSLB) and resuspended in ice-cold high-salt lysis buffer (HSLB: 20 mM HEPES (pH 7.9), 420 mM NaCl, 1 mM EDTA, 1 mM EGTA, 25% glycerol, 1 mM dithiothreitol, 0.5 mM phenylmethylsulfonyl fluoride, 1.0 mg/ml benzamidine, 4 μl/ml protease inhibitor cocktail, 10 μl/ml phosphate inhibitor; 4 μl/mg wet […] and centrifuged (13,000 rpm, 6 min, 4° C.). The supernatant (nuclear extract) was stored at −80° C. Protein concentration was determined using the Bradford assay (Bio-Rad 500-0006) in a standard 96 well plate.
Muscle proteins and immunoprecipitates (20 μg) were separated by SDS-PAGE under reducing conditions and transferred to PVDF membranes (Bio-Rad). […] Equal loading of proteins for cytosolic and whole cell extracts was evaluated by developing a blot for GAPDH. […]

nuclear p65 activation = experiment: TransAM NF-κB ELISA of nuclear p65 activation in mdx costal diaphragm; format: in vivo, mdx mice
Procedure: Cytosolic and nuclear fractions were obtained from isolated costal diaphragm using techniques that were slightly modified from Kumar and Boriek (2003). The muscles were removed from vehicle and drug-treated euthanized mdx mice at the end of the treatment period, and were flash-frozen and stored at −80° C. for a period of 1 to 4 weeks. The muscles were then thawed and weighed before being homogenized on ice using a mortar and pestle in low salt lysis (LSL) buffer (1 mg muscle wet weight/18 μl solution; in mM: 10 HEPES, 10 KCl, 1.5 MgCl2, 0.1 EDTA, 0.1 EGTA, 1 dithiothreitol (DTT), 0.5 phenylmethylsulfonylfluoride (PMSF); 0.5 mg/ml benzamidine, 4.0 μl/ml protease inhibitor cocktail Sigma #8340 (PIC) to produce the following final concentrations—2.1 μg/ml leupeptin, 3.85 μg/ml aprotinin, 0.416 mM AEBSF (Sigma A8456), 16 μM bestatin, 6 μM pepstatin A, 5.6 μM E64; pH 7.9). To lyse the cells, the ground tissue was then subjected to 2 freeze-thaw cycles (5 min freeze on dry ice followed by thawing at room temperature), and was subsequently vortexed and centrifuged (13,000 rpm, 15 s). The supernatant cytosolic extract was immediately frozen (−80° C.) for subsequent analyses as needed, while the nuclear pellet was washed in 50 μl LSL (2 times) before being re-suspended on ice in a high salt nuclear extraction buffer (in mM: 20 HEPES, 420 NaCl, 1 EDTA, 1 EGTA, 1 DTT, 0.5 PMSF; 25% glycerol, 0.5 mg/ml benzamidine, 4.0 μl/ml PIC; pH 7.9) at a ratio of 4 μl of solution per mg muscle wet weight. Preparations were incubated on ice for 30 min and vortexed for 10 s every 5 min before being centrifuged (13,000 rpm, 6 min) at 4° C. The supernatant nuclear extract was then removed and frozen (−80° C.) for subsequent analyses. Potential contamination of nuclear extracts with cytoplasmic proteins was less than 5%. Protein determinations for each fraction were obtained using the Bradford assay.
The Trans-Am assay (Active Motif; Carlsbad, Calif.) was used to determine nuclear NF-κB activation in nuclear fractions which were applied to the 96 well ELISA plates at 2-20 μg protein. The p65 primary antibody (catalogue number 40096) was used to detect p65 bound to oligonucleotide in vehicle and drug-treated preparations in accordance with kit instructions. A nuclear extract from Jurkat cells was routinely run as a positive control in association with each set of control and experimental samples.
Horizontal dashed lines indicate average levels observed in nondystrophic, vehicle, and UDCA treated preparations as indicated. In each case, percent recovery is determined by dividing the mean improvement observed in the UDCA treated preparation (UDCA-vehicle) from the deficit observed in the vehicle-treated preparation (nondystrophic-vehicle mdx). Mdx mice were treated for 30 days beginning at 1 month of age. Horizontal dashed lines in (A) and (B) representing nondystrophic values were obtained from a cohort of nondystrophic mice at 2 months of age. […] The results were obtained from two separate groups of vehicle and UDCA treated preparations that were assayed using two different 96 well plates. For each plate, the absorbance for each sample was normalized to the average absorbance determined for the vehicle-treated preparations on that plate. […] Millman et al., 2007. N is the number of mice and preparations in each condition. Shown are the means and standard errors. […] indicate p<0.05 and p<0.01, respectively, between vehicle and UDCA treated preparations. […]

[1] = UDCA 30 days from 1 month of age
[2] = UDCA 30 days, (UDCA-vehicle)/(nondystrophic-vehicle mdx)

C[C@H](CCC(=O)NCCS(=O)(=O)O)[C@H]1CC[C@H]2[C@@H]3[C@@H](O)C[C@@H]4C[C@H](O)CC[C@]4(C)[C@H]3CC[C@]12C [TUDCA, tauroursodeoxycholic acid]
effectiveness compared with UDCA (mdx mice; daily ip 30 days in 30 day-old mdx mice, TUDCA 6 mg/ml, N=4): No differences

CC(C)C[C@@H](C=O)NC(=O)[C@H](CC(C)C)NC(=O)[C@H](CC(C)C)NC(=O)OCc1ccccc1 [MG132, Z-leu-leu-leu-al] (Cbz-Leu-Leu-Leu-aldehyde)
increase in proportion of phosphorylated IκB-α (IκB-α and phospho-IκB-α; mdx diaphragm cytosolic extracts, not significant): 1.3 fold
expression of cytosolic IκB-α (IκB-α and phospho-IκB-α; nondystrophic and mdx preparations): not significantly increased
proportion of phosphorylated IκB-α (IκB-α and phospho-IκB-α; nondystrophic diaphragm, cytosol and whole cell extracts, MG132 1 mg/kg ip 2 h then 50 mM in vitro 2 h, p<0.05): doubling

C[C@H](CCC(=O)O)[C@H]1CC[C@H]2[C@@H]3[C@@H](O)C[C@@H]4C[C@H](O)CC[C@]4(C)[C@H]3CC[C@]12C [UDCA, ursodeoxycholic acid]
increase in WBT5 above vehicle-treated (mdx mice; [1]): about 21%
increase in WBT10 above vehicle-treated (mdx mice; [1]): about 21%
recovery of the dystrophic deficit in WBT5 (mdx mice; [2]): 27%
recovery of the dystrophic deficit in WBT10 (mdx mice; [2]): 24%
recovery towards values in mature nondystrophic preparations (nuclear p65 activation; 30 day UDCA treatment): 42%
reduction in nuclear p65 activation (nuclear p65 activation; 30 day UDCA treatment, p<0.05): 34%
mean absorbance relative to vehicle-treated preparations (nuclear p65 activation; [1]): approximately 66%
